Measurements as given in PubChem BioAssay AID330 (DTP/NCI, 2004).
Where “and” joins values, the source holds several entries; their conditions need not be identical. Equal entries are not always repeated. Toxic doses and inconclusive results are not listed. How the source made its calls: active means survival T/C of 150% or more; inactive means T/C below 125% in these data.

Tested on: P388 leukemia ip, CD2F1 mice, survival T/C
Assay: NCI In Vivo Anticancer Drug Screen. Data for tumor model P388 Leukemia (intraperitoneal) in CD2F1 (CDF1) mice
Conditions: endpoint: median survival time, higher = longer survival
How it was run: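 Mice carrying the transplanted tumor received test compound or vehicle. Survival was recorded in each group, and the value is the treated-group measurement divided by that of the vehicle-treated control group.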

[1] = dose: 60.0 mg/kg/injection, schedule: Q01DX005 (ip), vehicle: saline with Tween-80
[2] = dose: 120.0 mg/kg/injection, schedule: Q01DX005 (ip), vehicle: saline with Tween-80
[3] = dose: 240.0 mg/kg/injection, schedule: Q01DX005 (ip), vehicle: saline with Tween-80
[4] = dose: 6.25 mg/kg/injection, schedule: Q01DX005 (ip), vehicle: saline with Tween-80
[5] = dose: 12.5 mg/kg/injection, schedule: Q01DX005 (ip), vehicle: saline with Tween-80
[6] = dose: 50.0 mg/kg/injection, schedule: Q01DX005 (ip), vehicle: saline with Tween-80
[7] = dose: 100.0 mg/kg/injection, schedule: Q01DX005 (ip), vehicle: saline with Tween-80
[8] = dose: 200.0 mg/kg/injection, schedule: Q01DX005 (ip), vehicle: saline with Tween-80
[9] = dose: 100.0 mg/kg/injection, schedule: Q01DX009 (ip), vehicle: saline
[10] = dose: 200.0 mg/kg/injection, schedule: Q01DX009 (ip), vehicle: saline
[11] = dose: 50.0 mg/kg/injection, schedule: Q01DX009 (ip), vehicle: saline with Tween-80
[12] = dose: 12.5 mg/kg/injection, schedule: Q01DX009 (ip), vehicle: saline with Tween-80
[13] = dose: 50.0 mg/kg/injection, schedule: Q01DX009 (ip), vehicle: Klucel (hydroxypropylcellulose) (HPC)
[14] = dose: 100.0 mg/kg/injection, schedule: Q01DX009 (ip), vehicle: Klucel (hydroxypropylcellulose) (HPC)

Measured: T/C

CC(C)=CCC(O)/C(C)=C/CC/C(=C/CC/C(C)=C/CO)CO (configuration not stated)
inactive: dose: 3.88 mg/kg/injection, schedule: Q01DX005 (ip), vehicle: Klucel (hydroxypropylcellulose) (HPC) 93 % of control | dose: 7.75 mg/kg/injection, schedule: Q01DX005 (ip), vehicle: Klucel (hydroxypropylcellulose) (HPC) 100 % of control | dose: 15.5 mg/kg/injection, schedule: Q01DX005 (ip), vehicle: Klucel (hydroxypropylcellulose) (HPC) 102 % of control | dose: 31.0 mg/kg/injection, schedule: Q01DX005 (ip), vehicle: Klucel (hydroxypropylcellulose) (HPC) 102 % of control

CCOC(CCC1(C)C(=O)CCC1=O)(OCC)OCC
inactive: [1] 106 % of control | [2] 106 % of control | [3] 99 % of control

O=C1CCC(=O)c2c1c(O)c1c(O)ccc(O)c1c2O
inactive: [4] 96 % of control | [5] 87 % of control | dose: 25.0 mg/kg/injection, schedule: Q01DX005 (ip), vehicle: saline with Tween-80 94 % of control

COc1ccc(C2OC3=C(Nc4ccc(Cl)cc4N3)C2=O)c(OC)c1 (configuration not stated)
inactive: dose: 0.94 mg/kg/injection, schedule: Q01DX005 (ip), vehicle: Klucel (hydroxypropylcellulose) (HPC) 99 % of control | dose: 1.88 mg/kg/injection, schedule: Q01DX005 (ip), vehicle: Klucel (hydroxypropylcellulose) (HPC) 91 % of control | dose: 3.75 mg/kg/injection, schedule: Q01DX005 (ip), vehicle: Klucel (hydroxypropylcellulose) (HPC) 95 % of control | dose: 15.0 mg/kg/injection, schedule: Q01DX005 (ip), vehicle: Klucel (hydroxypropylcellulose) (HPC) 91 % of control | dose: 30.0 mg/kg/injection, schedule: Q01DX005 (ip), vehicle: Klucel (hydroxypropylcellulose) (HPC) 92 % of control | dose: 120.0 mg/kg/injection, schedule: Q01DX005 (ip), vehicle: Klucel (hydroxypropylcellulose) (HPC) 90 % of control and 93 % of control

NC(=O)C1CCCN(C2OC(COP(=O)(O)OP(=O)(O)OCC3OC(n4cnc5c(=O)[nH]c(N)nc54)C(O)C3O)C(O)C2O)C1 (configuration not stated)
inactive: [6] 100 % of control | [7] 104 % of control | [8] 100 % of control

COC(=O)CS(=O)(=O)CCCCCS(=O)(=O)CC(=O)OC
inactive: dose: 50.0 mg/kg/injection, schedule: Q01DX009 (ip), vehicle: saline 97 % of control | [9] 106 % of control | [10] 99 % of control

CC(C)N(C(=O)c1ccc([Si](C)(C)C)c(C(=O)N(C(C)C)C(C)C)n1)C(C)C
inactive: [1] 98 % of control | [2] 94 % of control | [3] 98 % of control

CC(=O)c1ccc(O)c(O)c1O
inactive: [9] 103 % of control and 104 % of control | [10] 107 % of control and 120 % of control | dose: 600.0 mg/kg/injection, schedule: Q01DX009 (ip), vehicle: saline 103 % of control and 104 % of control

CCN1CCC(OC(=O)c2ccccc2)(c2nccc3ccccc23)CC1
inactive: [11] 112 % of control

CNc1ccc(N=Nc2ccc3ncccc3c2)cc1
inactive: dose: 3.13 mg/kg/injection, schedule: Q01DX009 (ip), vehicle: saline with Tween-80 104 % of control | dose: 6.25 mg/kg/injection, schedule: Q01DX009 (ip), vehicle: saline with Tween-80 95 % of control | [12] 90 % of control | dose: 25.0 mg/kg/injection, schedule: Q04DX003 (ip), vehicle: saline with Tween-80 100 % of control | dose: 50.0 mg/kg/injection, schedule: Q04DX003 (ip), vehicle: saline with Tween-80 90 % of control | dose: 100.0 mg/kg/injection, schedule: Q04DX003 (ip), vehicle: saline with Tween-80 86 % of control

O=C1C(=C2C=CN(CCN3CCCC3)C=C2)C(=O)c2ccccc21
inactive: [13] 94 % of control | [14] 99 % of control | dose: 200.0 mg/kg/injection, schedule: Q01DX009 (ip), vehicle: Klucel (hydroxypropylcellulose) (HPC) 99 % of control

N#CC(OC(=O)c1ccccc1)C(OC(=O)c1ccccc1)C(COC(=O)c1ccccc1)OC(=O)c1ccccc1 (configuration not stated)
inactive: [6] 99 % of control and 92 % of control | [7] 94 % of control | [8] 99 % of control

CN(C)Cc1cc2c(=O)[nH]c(N)nc2[nH]1
inactive: dose: 100.0 mg/kg/injection, schedule: Q01DX001 (ip), vehicle: Klucel (hydroxypropylcellulose) (HPC) 101 % of control | dose: 200.0 mg/kg/injection, schedule: Q01DX001 (ip), vehicle: Klucel (hydroxypropylcellulose) (HPC) 104 % of control

S=c1n(-c2ccc(Cl)cc2)c2nc3ccccc3nc(/c2=N\Nc2ccccc2)n1-c1ccc(Br)cc1
inactive: [6] 92 % of control | [7] 105 % of control | [8] 105 % of control

O=C1C(Cl)=C(Nc2cccc3cc4ccccc4nc23)C(=O)c2ccccc21
inactive: dose: 5.0 mg/kg/injection, schedule: Q01DX009 (ip), vehicle: saline 104 % of control and 112 % of control | dose: 10.0 mg/kg/injection, schedule: Q01DX009 (ip), vehicle: saline 113 % of control and 114 % of control | dose: 20.0 mg/kg/injection, schedule: Q01DX009 (ip), vehicle: saline 104 % of control

COC(=O)Nc1cn2ccc(Sc3ccccc3)cc2n1
inactive: [13] 103 % of control and 109 % of control | [14] 105 % of control and 122 % of control

CN=C(NC)c1ccc(NC(=O)c2cc(Cl)cc(C(=O)Nc3ccc(C(=NC)NC)cc3)c2)cc1
inactive: dose: 6.25 mg/kg/injection, schedule: Q01DX005 (ip), vehicle: saline 98 % of control | dose: 12.5 mg/kg/injection, schedule: Q01DX005 (ip), vehicle: saline 113 % of control | dose: 25.0 mg/kg/injection, schedule: Q01DX005 (ip), vehicle: saline 118 % of control

CCN(CC)c1ccc(C(NCCC(C)C)C(Cl)(Cl)Cl)cc1 (configuration not stated)
inactive: dose: 50.0 mg/kg/injection, schedule: Q01DX005 (ip), vehicle: saline 97 % of control | dose: 100.0 mg/kg/injection, schedule: Q01DX005 (ip), vehicle: saline 101 % of control | dose: 200.0 mg/kg/injection, schedule: Q01DX005 (ip), vehicle: saline 101 % of control

CCSC1(SCC)C(=O)OC2=C(CCCCC2)C1N(C)c1ccccc1 (configuration not stated)
inactive: [12] 93 % of control | dose: 25.0 mg/kg/injection, schedule: Q01DX009 (ip), vehicle: saline with Tween-80 99 % of control | [11] 99 % of control

Cn1c(-c2ccccc2)cc2cc(CN)ccc21
inactive: [13] 100 % of control | [14] 100 % of control

COC(=O)C1C(OCc2ccccc2)C2CCC1(OC)C=C2C (configuration not stated)
inactive: dose: 100.0 mg/kg/injection, schedule: Q04DX002 (ip), vehicle: saline with Tween-80 91 % of control | dose: 200.0 mg/kg/injection, schedule: Q04DX002 (ip), vehicle: saline with Tween-80 98 % of control | dose: 400.0 mg/kg/injection, schedule: Q04DX002 (ip), vehicle: saline with Tween-80 91 % of control

CN(CCCl)C(=O)c1ccc([N+](=O)[O-])cc1
inactive: [11] 105 % of control | dose: 100.0 mg/kg/injection, schedule: Q01DX009 (ip), vehicle: saline with Tween-80 116 % of control | dose: 200.0 mg/kg/injection, schedule: Q01DX009 (ip), vehicle: saline with Tween-80 101 % of control

NCCNCCN1C(=O)c2cccc3cccc(c23)C1=O
inactive: dose: 100.0 mg/kg/injection, schedule: Q01DX001 (ip), vehicle: saline 110 % of control | dose: 200.0 mg/kg/injection, schedule: Q01DX001 (ip), vehicle: saline 86 % of control

COc1ccc(Cc2cc3c(cc2OCC(N)=O)OCO3)cc1
inactive: [4] 90 % of control | [5] 90 % of control
